# Source: patent publication US20050129772A1, “Compositions comprising an HIV protease inhibitor” (Agouron Pharmaceuticals, Inc., priority 2003, published 2005)
# Values joined by “and” are separate entries in the source; they are usually repeats but may differ in a detail not shown here. Equal values may be shown once.
# Legend:
# [1] = oral dosing to fasted beagle dogs, plasma drug concentration; assay type: in vivo; details: 25 mgA/kg; for AUC0-Tlast: oral gavage suspension in 0.5 wt % Methocel, plasma
# Method: The area under the concentration-versus-time curve (“AUCO-Tlast”, ng*hr/mL), from the time the dose was administered to the last sample, is shown in Table 17. Crystalline Form I of Compound A (Control 1) and amorphous Compound A (Example 1) were tested using a similar protocol. The dose was administered to dogs as a suspension in a solution containing 0.5 wt % Methocel® (HPMC, USP grade, 4000 cps, Dow Chemical Co.). Oral administration of the aqueous drug suspensions was facilitated using an oral gavage equipped with a polyethylene tube insert. The polyethylene tube insert was used to accurately deliver the desired volume of dose by displacement, without the need for additional volume of water to rinse the tube. The dose was 25 mgA/kg (“mgA” refers to mg of active drug).
# [2] = in vitro dissolution test in PBS at pH 6.5 and 290 mOsm/kg, 37° C.; assay type: physicochemical; parameters: AUC: concentration or dose not given beside the values; details: for AUC90 (area under the concentration-versus-time curve during the initial ninety minutes) / AUC1200 / C1200 (Compound A concentration at 1200 minutes) / MDC90 (maximum concentration of drug during the initial ninety minutes): dose 3000 μg/mL; for Compound A Concentration: 3000 μg/mL if all dissolved
# Method: An in vitro dissolution test was performed to determine whether the amorphous Compound A of Example 1 provides concentration-enhancement relative to the crystalline form of Compound A. For this test, a sufficient amount of material was added to a microcentrifuge test tube so that the concentration of Compound A would have been 3000 μg/mL, if all of Compound A had dissolved. The test was run in duplicate. The tubes were placed in a 37° C. temperature-controlled chamber, and 1.8 mL PBS at pH 6.5 and 290 mOsm/kg was added to each respective tube. The samples were quickly mixed using a vortex mixer for about 60 seconds. The samples were centrifuged at 13,000 G at 37° C. for 1 minute. The resulting supernatant solution was then sampled and diluted 1:6 (by volume) with methanol and then analyzed by high-performance liquid chromatography (HPLC). HPLC analysis was performed using a Phenomenex Luna C18 column. The mobile phase consisted of 55% 20 mM KH2PO4, adjusted to pH 3 with H3PO4, and 45% acetonitrile. UV absorbance was measured at 210 nm. The contents of each tube were mixed on the vortex mixer and allowed to stand undisturbed at 37° C. until the next sample was taken. Samples were collected at 4, 10, 20, 40, 90 and 1200 minutes. Control 1 consisted of crystalline Form I of Compound A alone, and a sufficient amount of material was added so that the concentration of Compound A would have been 3000 μg/mL, if all of Compound A had dissolved. The concentrations of drug obtained in these samples were used to determine the maximum concentration of drug (“MDC90”), the area under the concentration-versus-time curve (“AUC90”) during the initial ninety minutes, and the Compound A concentration at 1200 minutes (“[…]”). Example 2 was prepared by combining amorphous Compound A and a concentration-enhancing polymer. A simple physical mixture of Compound A and the concentration-enhancing polymer hydroxypropyl methyl cellulose acetate succinate (AQUOT-MG, available from Shin Etsu, Tokyo, Japan) was prepared by adding 5.4 mg of amorphous Compound A prepared as in Example 1 and 0.6 mg of HPMCAS to a centrifuge tube. The dry powders were mixed using a vortex mixer for 1 minute. Dissolution tests were performed as described in Example 1. […] For these tests, a sufficient amount of material was added so that the concentration of Compound A would have been 3000 μg/mL, if all of Compound A had dissolved. […] Examples 37A, 37B and 37C were prepared as in Example 2, but with the following exceptions: Example 37A was 5.4 mg Compound A and 0.6 mg HPMCAS; Example 37B was 5.4 mg Compound A and 0.167 mg HPMCAS; and Example 37C was 5.4 mg Compound A and 0.055 mg HPMCAS. Example 37D consisted of amorphous Compound A alone. MDC360 is the maximum dissolved drug concentration within the first 360 minutes, and AUC360 is the area under the dissolved drug concentration versus time curve at 360 minutes.
# [3] = aqueous solubility of crystalline Compound A; assay type: physicochemical; details: 26° C.
# Text: The compound (4R)—N-allyl-3-{(2S,3S)-2-hydroxy-3-[(3-hydroxy-2-methylbenzoyl)amino]-4-phenylbutanoyl}-5,5-dimethyl-1,3-thiazolidine-4-carboxamide (also called “(R)-3-((2S,3S)-2-hydroxy-3-{[1-(3-hydroxy-2-methyl-phenyl)-methanoyl]-amino}-4-phenyl-butanoyl)-5,5-dimethyl-thiazolidine-4-carboxylic acid allylamide,” “(4R)-3-[(2S,3S)-2-hydroxy-3-(3-hydroxy-2-methyl-benzoylamino)-4-phenyl-butyryl]-5,5-dimethyl-thiazolidine-4-carboxylic acid allylamide,” or “4-thiazolidinecarboxamide, 3-[(2S,3S)-2-hydroxy-3-[(3-hydroxy-2-methylbenzoyl)amino]-1-oxo-4-phenylbutyl]-5,5-dimethyl-N-2-propenyl-, (4R)-,” and hereinafter referred to as “Compound A”) is an inhibitor of the HIV protease enzyme that may be used for the treatment of HIV-infected mammals, such as humans. Compound A and its preparation are disclosed in U.S. patent application Ser. Nos. 10/166,979 filed Jun. 11, 2002; 60/527,477, filed Dec. 4, 2003, and, 10/782,602, filed Dec. 4, 2003, all of which incorporated herein by reference for this purpose. […] This low aqueous solubility, combined with a low in vivo permeability, result in low oral bioavailability for crystalline Compound A.
# [4] = time 10 min, PBS pH 6.5, 37° C.
# [5] = time 20 min, PBS pH 6.5, 37° C.
# [6] = time 40 min, PBS pH 6.5, 37° C.
# [7] = time 90 min, PBS pH 6.5, 37° C.
# [8] = time 1200 min, PBS pH 6.5, 37° C.
# [9] = PBS pH 6.5, 37° C., listed as Ex 1
Structure (SMILES),AUC0-Tlast [1],"AUC90 (area under the concentration-versus-time curve during the initial ninety minutes) ([2]; PBS pH 6.5, 37° C.)","AUC1200 ([2]; PBS pH 6.5, 37° C.)","C1200 (Compound A concentration at 1200 minutes) ([2]; PBS pH 6.5, 37° C.)","MDC90 (maximum concentration of drug during the initial ninety minutes) ([2]; PBS pH 6.5, 37° C.)","AUC ([2]; time 0 min, PBS pH 6.5, 37° C.)","Compound A Concentration ([2]; time 0 min, PBS pH 6.5, 37° C.)","AUC ([2]; time 4 min, PBS pH 6.5, 37° C.)","Compound A Concentration ([2]; time 4 min, PBS pH 6.5, 37° C.)","AUC [2, 4]","Compound A Concentration [2, 4]","AUC [2, 5]","Compound A Concentration [2, 5]","AUC [2, 6]","Compound A Concentration [2, 6]","AUC [2, 7]","Compound A Concentration [2, 7]","AUC [2, 8]","Compound A Concentration [2, 8]",other results
"C=CCNC(=O)[C@H]1N(C(=O)[C@@H](O)[C@H](Cc2ccccc2)NC(=O)c2cccc(O)c2C)CSC1(C)C [Control 1, (4R)—N-allyl-3-{(2S,3S)-2-hydroxy-3-[(3-hydroxy-2-methylbenzoyl)amino]-4-phenylbutanoyl}-5,5-dimethyl-1,3-thiazolidine-4-carboxamide]",300 ng·h/mL,9200 µg·min/mL,"132,000 min*μg/mL",109 µg/mL,112 µg/mL,0 µg·min/mL,0 µg/mL,200 µg·min/mL,100 µg/mL,800 µg·min/mL,100 µg/mL,1800 µg·min/mL,106 µg/mL,3900 µg·min/mL,101 µg/mL,9200 µg·min/mL,112 µg/mL,"131,700 min * μg/mL",109 µg/mL,–
"C=CCNC(=O)[C@H]1N(C(=O)[C@@H](O)[C@H](Cc2ccccc2)NC(=O)c2cccc(O)c2C)CSC1(C)C [Example 37D, (4R)—N-allyl-3-{(2S,3S)-2-hydroxy-3-[(3-hydroxy-2-methylbenzoyl)amino]-4-phenylbutanoyl}-5,5-dimethyl-1,3-thiazolidine-4-carboxamide]",–,–,–,–,–,–,–,–,–,–,–,–,–,–,–,–,–,–,–,"AUC360 (area under the dissolved drug concentration versus time curve at 360 minutes) ([2]; dissolution as in Example 2): 180,000 min*μg/ml; MDC360 (maximum dissolved drug concentration within the first 360 minutes) ([2]; dissolution as in Example 2): 1190 µg/mL; C1200 ([2]; dissolution as in Example 2 (Example 37 series)): 140 µg/mL"
"C=CCNC(=O)[C@H]1N(C(=O)[C@@H](O)[C@H](Cc2ccccc2)NC(=O)c2cccc(O)c2C)CSC1(C)C [Compound A, (4R)—N-allyl-3-{(2S,3S)-2-hydroxy-3-[(3-hydroxy-2-methylbenzoyl)amino]-4-phenylbutanoyl}-5,5-dimethyl-1,3-thiazolidine-4-carboxamide]",–,–,–,–,–,–,–,–,–,–,–,–,–,–,–,–,–,–,–,aqueous solubility ([3]; 0.1 N HCl (pH 1.2)): about 0.16 mgA/mL; aqueous solubility ([3]; normal saline (pH 8.2)): ~0.14 mgA/mL; aqueous solubility ([3]; unbuffered water (pH 8.3)): about 0.16 mgA/mL
"C=CCNC(=O)[C@H]1N(C(=O)[C@@H](O)[C@H](Cc2ccccc2)NC(=O)c2cccc(O)c2C)CSC1(C)C [Example 1, (4R)—N-allyl-3-{(2S,3S)-2-hydroxy-3-[(3-hydroxy-2-methylbenzoyl)amino]-4-phenylbutanoyl}-5,5-dimethyl-1,3-thiazolidine-4-carboxamide]",3500 ng·h/mL,"75,900 min * μg/mL","233,000 min*μg/mL",126 µg/mL,1153 µg/mL and 1150 µg/mL,0 µg·min/mL,0 µg/mL,2100 µg·min/mL,1070 µg/mL,8800 µg·min/mL,1140 µg/mL,"20,200 min * μg/mL",1150 µg/mL,"43,200 min * μg/mL",1150 µg/mL,"75,900 min * μg/mL",158 µg/mL,"233,200 min * μg/mL",126 µg/mL,"relative bioavailability (AUC of test composition divided by AUC of crystalline Form I of Compound A alone) ([1]; oral): 11.7 fold; AUC90 relative to crystalline Form I of Compound A ([2]; PBS pH 6.5, 37° C.): 8.3 fold; MDC relative to crystalline Form I of Compound A ([2]; PBS pH 6.5, 37° C.): 10.3 fold; AUC90 (area under the concentration-versus-time curve during the initial ninety minutes) [2, 9]: 75,900 min * μg/mL; C1200 (Compound A concentration at 1200 minutes) [2, 9]: 126 µg/mL; MDC90 (maximum concentration of drug during the initial ninety minutes) [2, 9]: 1150 µg/mL"
